The source of these data is patent publication US5424312A, “Aminoalkyl-substituted 2-amino-1,3,4-thiadiazoles, the preparation and use thereof” (BASF Aktiengesellschaft, priority 1991, dated 1995).

Structures can show the parent of a compound that is named as a salt.

T1 sequence (P61169 whole entry): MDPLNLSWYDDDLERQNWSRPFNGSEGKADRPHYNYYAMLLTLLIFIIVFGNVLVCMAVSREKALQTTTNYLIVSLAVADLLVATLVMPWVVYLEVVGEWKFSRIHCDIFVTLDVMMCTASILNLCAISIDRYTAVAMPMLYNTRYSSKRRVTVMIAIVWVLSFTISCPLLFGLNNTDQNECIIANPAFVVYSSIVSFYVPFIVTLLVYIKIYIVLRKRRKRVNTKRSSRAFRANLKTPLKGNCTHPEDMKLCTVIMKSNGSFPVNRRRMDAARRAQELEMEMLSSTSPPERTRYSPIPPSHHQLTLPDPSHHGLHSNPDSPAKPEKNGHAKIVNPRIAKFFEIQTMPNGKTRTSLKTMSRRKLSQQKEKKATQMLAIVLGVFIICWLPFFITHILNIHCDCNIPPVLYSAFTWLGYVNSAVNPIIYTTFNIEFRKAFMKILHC

One experiment addresses T1, dopamine D2 receptor (Rattus norvegicus, UniProt P61169).
T1 construct: Striata from rats (Sprague Dawley, Charles River) were homogenized immediately after removal; from tissue; host or cells: rat striatum (Sprague Dawley, Charles River), membranes
The experiment can be described thus: Receptor binding assay with 3H-ADTN on rat striatal membranes: affinity for the dopamine D2 receptor. More on the design: species or system rat (Sprague Dawley).
Conditions: not given
Here is the method:
The effects of the novel compounds can be shown in the receptor binding assay as follows:
Striata from rats (Sprague Dawley, Charles River) were homogenized immediately after removal in 0.32M sucrose solution (0° C.). The homogenate was filtered through gauze, the filtrate was centrifuged at 1000×g (5 min at 4° C.) and the resulting supernatant was centrifuged at 40000×g (4C 10 min) The residue (membranes) was taken up in incubation buffer (50 mM tris-HCl, 1 mM MgCl2 and 0.1% ascorbic acid, pH 7.4) and incubated at 37° C. for 20 min. The residue was subsequently washed 2× with incubation buffer by resuspension and recentrifugation. The membranes were frozen in portions in liquid nitrogen.
The assay mixtures (1 ml) were composed of membranes (380 μg of protein), 1 nM ^3 H-ADTN (NEN, Dreieich Germany, specific radioactivity 1.4 TBq/mmol) and 0.1 μM SCH 23390 (total binding) or a) with the addition of 50 nM spiperone (non-specific binding) or b) with test substance. The mixtures were prepared in triplicate.
After the incubation (40 min at 25° C.) the mixtures were filtered through glass fiber filters (Whatman GF/B) and briefly washed with ice-cold washing buffer (tris-HCl, pH 7.4). The radioactivity retained on the filters was determined by liquid scintillation counting. The non-specific binding comprised about 40-50% of the total binding.
The evaluation of the competition plots and the determination of the dissociation constant took place by iterative non-linear regression analysis based on the "ligand" program (Muson and Rodbard: Anal. Biochem. 107 (1980) 220).
Affinity of the test substances for the dopamine D2 receptor
One may read the Ki as the dissociation constant of the complex between target and ligand, obtained from inhibition or displacement. With `Nc1nnc(CCCCCN2CC=C(c3ccccc3)CC2)s1` [Example 19, fumarate], the Ki came out at 0.01 µM.

`Nc1nnc(CCCCN2CC=C(c3ccccc3)CC2)s1` [Example 18, 2-Amino-5-[4-(1,2,3,6-tetrahydro-4-phenylpyridinyl)-butyl]-1,3,4-thiadiazole] showed a Ki of 0.005 µM.

The experiment is the same for the next values; noted with them: rat striatum membranes; 1 nM 3H-ADTN; 0.1 μM SCH 23390; non-specific binding with 50 nM spiperone; 40 min at 25° C.; read-out: Affinity of the test substances for the dopamine D2 receptor, Ki.
As to `Nc1nnc(CCN2CC=C(c3ccc(Cl)cc3)CC2)s1` [Example 7, 2-Amino-5-[2-(4-(4-chlorophenyl)-l,2,3,6-tetrahydropyridyl)ethyl]-1,3,4-thiadiazole dihydrochloride], the Ki stood at 0.03 µM.

With `Nc1nnc(CCCCN2CCN(c3ccccn3)CC2)s1` [Example 21, 2-Amino-5-[4-(4-pyridin-2-ylpiperazinyl)butyl]-1,3,4-thiadiazole], the Ki amounted to 0.044 µM.

For the molecule `Nc1nnc(CCN2CC=C(c3ccccc3)CC2)s1` [Example 4, 2-Amino-5-[2-(1,2,3,6-tetrahydro-4-phenylpyridyl)-ethyl]-1,3,4-thiadiazolehydrochloride], the Ki was determined as 0.03 µM.

Take `Nc1nnc(CCCN2CC=C(c3ccccc3)CC2)s1` [Example 10, 2-Amino-5-[3-(1,2,3,6-tetrahydro-4-phenylpyridyl)propyl]-1,3,4-thiadiazolehydrochloride]: the Ki was determined as 0.032 µM.

For `Nc1nnc(CCN2CCC(c3ccccc3)CC2)s1` [Example 24, 2-Amino-5-[2-(4-phenylpiperidinyl)ethyl]-1,3,4-thiadiazole], the Ki is 0.037 µM.
